This passage reports IC50 results from US8957074B2 (Novartis AG, priority 2010, dated 2015).

One assay concerns the target CDK4/cyclin D1 (Homo sapiens (Human), UniProt P11802). In words: CDK4/cyclin D1 enzymatic activity assay (TR-FRET, phosphorylation of pRb at Ser780). In kind it is biochemical. In outline:
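Phosphorylation at pRb Ser780, detected by TR-FRET, gave IC50s and kinetics. Enzyme: baculovirus/Sf21-expressed human CDK4/cyclin D1. ATP at 3 μM initiated the reaction; EDTA (pH 8.0) stopped it after 60 min at 22° C.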
(Time-resolved FRET reads energy transfer from a long-lived donor to a nearby acceptor.)

The test system of assay [1] is phosphorylation of pRb at the Ser780 site in JeKo-1 mantle cell lymphoma cells. In words: CDK4 cellular assay: ELISA of pRb phosphorylation at Ser780 in JeKo-1 cells. In kind it is cell-based.
The target of another assay is CDK1/cyclin B (Homo sapiens (Human), UniProt P06493). In words: CDK1/cyclin B enzymatic activity assay (IMAP-FP). In kind it is biochemical. The following applies: 100 nM Tamra Histone-H1 peptide, 20 μM ATP, 120 min at room temperature, read-out: Biochemical CDK1 enzyme IC50. The text has this: CDK1/Cyclin B Enzymatic Activity Assay
A 384-well microtiter IMAP-FP™ (Molecular Devices Trade Mark Technology) endpoint assay was used for CDK1/cyclin B kinase activity measurements. The same assay was used for IC50 determination of small molecule inhibitors.

Where [2] appears, read: 0.3 nM CDK4/cyclin D1, 150 nM biotin-pRb (773-924), 3 μM ATP, 60 min at 22° C., read-out: Biochemical CDK4 enzyme IC50.
The mark [3] stands for this setting: Homo sapiens, JeKo-1, JeKo-1 cells, p-pRb % inhibition adjusted with total pRb levels, read-out: Normalized cellular ppRb inhibition IC50.
The mark [4] stands for this setting: Homo sapiens, JeKo-1, JeKo-1 cells, p-pRb Ser780 ELISA, non-normalized, read-out: Cellular ppRb inhibition IC50.
[5] abbreviates: Homo sapiens, JeKo-1 cells, p-pRb % inhibition adjusted with total pRb levels, read-out: Normalized cellular ppRb inhibition IC50.
Setting [6] is: Homo sapiens, JeKo-1 cells, p-pRb Ser780 ELISA, non-normalized, read-out: Cellular ppRb inhibition IC50.

Where two headings read alike, the source gives them in different places.

Chain of CDK1/cyclin B (P06493 whole entry, species assumed): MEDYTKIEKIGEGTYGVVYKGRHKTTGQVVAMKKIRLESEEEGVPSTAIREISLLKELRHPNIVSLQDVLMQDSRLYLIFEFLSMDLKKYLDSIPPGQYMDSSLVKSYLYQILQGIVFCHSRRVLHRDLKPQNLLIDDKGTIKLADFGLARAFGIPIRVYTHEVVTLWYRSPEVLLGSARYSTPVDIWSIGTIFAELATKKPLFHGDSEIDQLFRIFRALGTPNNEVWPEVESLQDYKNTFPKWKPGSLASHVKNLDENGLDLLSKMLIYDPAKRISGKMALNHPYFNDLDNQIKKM
Chain of CDK1/cyclin B (P14635 whole entry partner, species assumed): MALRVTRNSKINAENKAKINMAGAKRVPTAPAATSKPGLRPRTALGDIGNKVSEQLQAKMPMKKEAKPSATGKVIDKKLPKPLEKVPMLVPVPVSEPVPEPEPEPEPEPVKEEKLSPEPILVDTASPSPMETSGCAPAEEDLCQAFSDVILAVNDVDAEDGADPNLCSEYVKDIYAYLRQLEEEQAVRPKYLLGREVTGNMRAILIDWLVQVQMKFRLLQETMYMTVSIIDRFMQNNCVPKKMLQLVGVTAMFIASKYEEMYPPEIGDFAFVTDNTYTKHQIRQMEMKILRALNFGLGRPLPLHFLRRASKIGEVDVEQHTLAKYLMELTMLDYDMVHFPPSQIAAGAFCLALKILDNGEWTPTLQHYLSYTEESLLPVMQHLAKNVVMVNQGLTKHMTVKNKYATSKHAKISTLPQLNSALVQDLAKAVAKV
Chain of CDK4/cyclin D1 (P11802 whole entry): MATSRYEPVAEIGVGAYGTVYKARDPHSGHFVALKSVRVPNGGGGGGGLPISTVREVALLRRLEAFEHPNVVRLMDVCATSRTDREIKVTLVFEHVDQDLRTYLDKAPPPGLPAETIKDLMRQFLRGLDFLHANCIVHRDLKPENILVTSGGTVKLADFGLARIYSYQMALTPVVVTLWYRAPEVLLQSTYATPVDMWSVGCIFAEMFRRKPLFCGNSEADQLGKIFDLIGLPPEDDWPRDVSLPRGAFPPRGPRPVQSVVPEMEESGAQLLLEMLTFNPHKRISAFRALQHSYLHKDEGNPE
Chain of CDK4/cyclin D1 (P24385 whole entry partner): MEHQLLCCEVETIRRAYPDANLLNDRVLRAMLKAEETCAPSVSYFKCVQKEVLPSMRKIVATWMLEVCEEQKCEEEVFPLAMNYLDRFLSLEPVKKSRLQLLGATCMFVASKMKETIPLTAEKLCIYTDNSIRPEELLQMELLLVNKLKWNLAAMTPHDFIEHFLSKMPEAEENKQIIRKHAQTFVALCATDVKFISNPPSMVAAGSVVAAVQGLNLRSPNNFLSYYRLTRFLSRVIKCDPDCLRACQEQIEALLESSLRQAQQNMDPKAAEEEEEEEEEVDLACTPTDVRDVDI

Regarding `CN(C)C(=O)c1cc2cnc(Nc3ccc(C(=O)N4CCC[C@@H]5CCN[C@@H]5C4)cn3)nc2n1C1CCCC1` [Example 25, 7-Cyclopentyl-2-[5-((3aR,8aS)-octahydro-pyrrolo[2,3-c]azepine-7-carbonyl)-pyridin-2-ylamino]-7H-pyrrolo[2,3-d]pyrimidine-6-carboxylic acid dimethylamide], the half-maximal inhibitory concentration (IC50) is 8 nM at CDK4/cyclin D1 (setting [2]), 22 nM in assay [1] (setting [3]), 20 nM in assay [1] (setting [4]) and greater than 15 µM on CDK1/cyclin B ([…] CDK1/cyclin B).
The like results for `CN(C)C(=O)c1cc2cnc(Nc3ccc(N4C[C@H]5CC[C@@H](CC4=O)N5)cn3)nc2n1C1CCCCC1` [Example 133, 7-Cyclohexyl-2-[5-((1R,6S)-4-oxo-3,9-diaza-bicyclo[4.2.1]non-3-yl)-pyridin-2-ylamino]-7H-pyrrolo[2,3-d]pyrimidine-6-carboxylic acid dimethylamide] were, in that order, less than 5 nM, 7 nM, 5 nM and 13.3 µM.
`Cc1cc(Nc2ncc3cc(C(=O)N(C)C)n(C4CCCC4)c3n2)ncc1C(=O)N1CC2CCC(C1)N2` [Example 51, 7-Cyclopentyl-2-[5-(3,8-diaza-bicyclo[3.2.1]octane-3-carbonyl)-4-methyl-pyridin-2-ylamino]-7H-pyrrolo[2,3-d]pyrimidine-6-carboxylic acid dimethylamide]: the IC50 was 23 nM at CDK4/cyclin D1 (setting [2]), 60 nM in assay [1] (setting [5]), 28 nM in assay [1] (setting [6]) and greater than 15 µM at CDK1/cyclin B (0.25 nM CDK1/cyclin B).
As to `CN(C)C(=O)c1cc2cnc(Nc3ccc(N4CC5CCC(CC4=O)N5)nn3)nc2n1C1CCCC1` (stereo not shown) [Example 79, 7-Cyclopentyl-2-[6-(4-oxo-3,9-diaza-bicyclo[4.2.1]non-3-yl)pyridazin-3-ylamino]-7H-pyrrolo[2,3-d]pyrimidine-6-carboxylic acid dimethylamide], the IC50 on CDK4/cyclin D1 is 42 nM; in assay [1] (setting [3]), 117 nM; in assay [1] (setting [4]), 30 nM; at CDK1/cyclin B (0.25 nM CDK1/cyclin B), greater than 15 µM.
In the case of `CN(C)C(=O)c1cc2cnc(Nc3ccc(C(=O)N4CC5CCC(C4)N5)cn3)nc2n1[C@H]1CC[C@H](C(C)(C)C)CC1` [Example 37, 7-(4-tert-Butyl-cyclohexyl)-2-[5-(3,8-diaza-bicyclo[3.2.1]octane-3-carbonyl)-pyridin-2-ylamino]-7H-pyrrolo[2,3-d]pyrimidine-6-carboxylic acid dimethylamide], the IC50 on CDK4/cyclin D1 is 5 to 6 nM; in assay [1] (setting [3]) it was 288 to 438 nM; in assay [1] (setting [4]), 121 to 301 nM; at CDK1/cyclin B ([…] CDK1/cyclin B), greater than 15 µM.
As for `CC(C)N1[C@@H]2CC[C@H]1CN(c1ccc(Nc3ncc4cc(C(=O)N(C)C)n(C5CCCC5)c4n3)nc1)C(=O)C2` [Example 142, 7-Cyclopentyl-2-[5-((1S,6R)-9-isopropyl-4-oxo-3,9-diaza-bicyclo[4.2.1]non-3-yl)-pyridin-2-ylamino]-7H-pyrrolo[2,3-d]pyrimidine-6-carboxylic acid dimethylamide], the IC50 at CDK4/cyclin D1 (setting [2]) was 34 nM; in assay [1] (setting [5]), 13 nM; in assay [1] (setting [6]) it was 6 nM; on CDK1/cyclin B ([…] CDK1/cyclin B), greater than 15 µM.
As to `CN1CCCC2(C1)CN(c1ccc(Nc3ncc4cc(C(=O)N(C)C)n(C5CCCC5)c4n3)nc1)C(=O)O2` (stereo not shown) [Example 108, 7-cyclopentyl-N,N-dimethyl-2-(5-(7-methyl-2-oxo-1-oxa-3,7-diazaspiro[4.5]decan-3-yl)pyridin-2-ylamino)-7H-pyrrolo[2,3-d]pyrimidine-6-carboxamide], the IC50 on CDK4/cyclin D1 (setting [2]) was 13 nM; in assay [1] (setting [3]), 69 nM; in assay [1] (setting [4]) it was 61 nM; at CDK1/cyclin B ([…] CDK1/cyclin B), greater than 15 µM.
Consider `CSCC[C@@H](N)C(=O)N1C2CCC1CN(C(=O)c1ccc(Nc3ncc4cc(C(=O)N(C)C)n(C5CCCC5)c4n3)nc1)C2` [Example 59, 2-{5-[8-((R)-2-Amino-4-methylsulfanyl-butyryl)-3,8-diaza-bicyclo[3.2.1]octane-3-carbonyl]-pyridin-2-ylamino}-7-cyclopentyl-7H-pyrrolo[2,3-d]pyrimidine-6-carboxylic acid dimethylamide], for which the IC50 at CDK4/cyclin D1 (setting [2]) is 8 nM; in assay [1] (setting [5]), greater than 10000 nM; in assay [1] (setting [6]), 2500 nM; on CDK1/cyclin B ([…] CDK1/cyclin B) it was greater than 15 µM.
The like results for `CN(C)C(=O)c1cc2cnc(Nc3ccc(N4CC5(CCNCC5)OC4=O)cn3)nc2n1C1CCCC1` [Example 119, 7-cyclopentyl-N,N-dimethyl-2-(5-(2-oxo-1-oxa-3,8-diazaspiro[4.5]decan-3-yl)pyridin-2-ylamino)-7H-pyrrolo[2,3-d]pyrimidine-6-carboxamide] were, in that order, 12 nM, 72 to 83 nM, 26 to 47 nM and greater than 15 µM.
Consider `CN(C)C(=O)c1cc2cnc(Nc3ccc(C(=O)N4CCN5CCC[C@@H]5C4)cn3)nc2n1C1CCCC1` [Example 21, 7-Cyclopentyl-2-[5-((R)-hexahydro-pyrrolo[1,2-a]pyrazine-2-carbonyl)-pyridin-2-ylamino]-7H-pyrrolo[2,3-d]pyrimidine-6-carboxylic acid dimethylamide], for which the IC50 is 47 nM at CDK4/cyclin D1 (setting [2]), 401 nM in assay [1] (setting [3]), 187 nM in assay [1] (setting [4]) and greater than 15 µM on CDK1/cyclin B ([…] CDK1/cyclin B).
The like results for `Cc1nc(Nc2ncc3cc(C(=O)N(C)C)n(C4CCCC4)c3n2)ccc1C(=O)N1CC2CCC(C1)N2` [Example 50, 7-Cyclopentyl-2-[5-(3,8-diaza-bicyclo[3.2.1]octane-3-carbonyl)-6-methyl-pyridin-2-ylamino]-7H-pyrrolo[2,3-d]pyrimidine-6-carboxylic acid dimethylamide] were, in that order, 21 nM, 90 nM, 41 nM and greater than 15 µM.
For the compound `CC(=O)NCC(=O)N1[C@@H]2CC[C@H]1CN(c1ccc(Nc3ncc4cc(C(=O)N(C)C)n(C5CCCC5)c4n3)nc1)C(=O)C2` [Example 138, 2-(5-((1S,6R)-9-(2-acetamidoacetyl)-4-oxo-3,9-diazabicyclo[4.2.1]nonan-3-yl)pyridin-2-ylamino)-7-cyclopentyl-N,N-dimethyl-7H-pyrrolo[2,3-d]pyrimidine-6-carboxamide], the IC50 was 106 nM on CDK4/cyclin D1 (setting [2]), 1600 nM in assay [1] (setting [6]) and greater than 15 µM on CDK1/cyclin B ([…] CDK1/cyclin B).
For the compound `CN(C)C(=O)c1cc2cnc(Nc3ccc(C(=O)N4CC5CCC(C4)N5)cn3)nc2n1C(C)(C)C` [Example 58, 7-tert-Butyl-2-[5-(3,8-diaza-bicyclo[3.2.1]octane-3-carbonyl)-pyridin-2-ylamino]-7H-pyrrolo[2,3-d]pyrimidine-6-carboxylic acid dimethylamide], the IC50 on CDK4/cyclin D1 (setting [2]) was 74 nM; in assay [1] (setting [5]), 288 to 338 nM; in assay [1] (setting [6]), 105 to 188 nM; at CDK1/cyclin B ([…] CDK1/cyclin B) it was greater than 15 µM.
Consider `CN(C)C(=O)c1cc2cnc(Nc3ccc(N4CC5CCC(CC4=O)N5)cn3)nc2n1C1CCCC1` (stereo not shown) [Example 122, 7-Cyclopentyl-2-[5-(4-oxo-3,9-diaza-bicyclo[4.2.1]non-3-yl)-pyridin-2-ylamino]-7H-pyrrolo[2,3-d]pyrimidine-6-carboxylic acid dimethylamide], for which the IC50 on CDK4/cyclin D1 is 5 to 10 nM; in assay [1] (JeKo-1 cells, p-pRb % inhibition adjusted with total pRb levels, read-out: Normalized cellular ppRb inhibition IC50), 14 nM; in assay [1] (JeKo-1 cells, p-pRb Ser780 ELISA, non-normalized, read-out: Cellular ppRb inhibition IC50), 9 nM; on CDK1/cyclin B ([…] CDK1/cyclin B), greater than 15 µM.

The term IC50 denotes the concentration at which inhibition is half-maximal.
